Assays:
HLA-DR2 = target: T1, HLA-DR2 (Homo sapiens, UniProt P01903+P01911); assay: ProImmune REVEAL MHC-peptide binding assay; details: compared to the positive control peptide, time 0
T1 construct: purchased ProImmune
Experimental: (§1) The ProImmune REVEAL® MHC-peptide binding assay determines the ability of each candidate peptide to bind to the selected HLA class II haplotype and stabilize the HLA-peptide complex. Thereby the candidate peptides are assembled in vitro with a particular HLA class II protein. The level of peptide incorporation into HLA molecules is measured by presence or absence of the native conformation of the assembled HLA-peptide complex at time 0 after completed refolding procedure (so called on-rate).
(§2) The binding capacity of candidate peptide to a particular HLA molecule is compared to the one with known very strong binding properties (positive control) resulting in the corresponding REVEAL® […] binding score. The positive control peptide is selected and provided by ProImmune based on their experience individually for each HLA haplotype.

HLA-DR1 = assay: ProImmune REVEAL MHC-peptide binding assay; design: species or system human; details: compared to the positive control peptide, time 0
Experimental: as §1, §2

HLA-DR4 = assay: ProImmune REVEAL MHC-peptide binding assay; design: species or system human; details: compared to the positive control peptide, time 0
Experimental: as §1, §2

HLA-DR5 = assay: ProImmune REVEAL MHC-peptide binding assay; design: species or system human; details: compared to the positive control peptide, time 0
Experimental: as §1, §2

HLA-DR7 = assay: ProImmune REVEAL MHC-peptide binding assay; design: species or system human; details: compared to the positive control peptide, time 0
Experimental: as §1, §2

CD4 T-cells = assay: Intracellular cytokine staining (ICS) of CD4 T-cells in blood samples of vaccinated patients; format: in vivo, human; details: vaccination with IMA950 peptides, 16 patients
Experimental: A conclusion on the immugenicity of a peptide based on its binding capacity to a HLA molecule can be made by comparing the binding score of this peptide to the one with known immunogenicity. Therefore, five well investigated peptides with determined immunogenicity were selected for this comparison. The immunogenicity of these peptides was determined ex vivo in blood samples of vaccinated patients using intracellular cytokine staining (ICS) CD4 T-cells.
In principle, ICS assays analyze the quality of specific T cells in terms of effector functions. Therefore, the peripheral mononuclear cells (PBMCs) were cultivated in vitro and subsequently restimulated by the peptide of interest, a reference peptide and a negative control (here MOCK).
Following the restimulated cells were stained for FN-gamma, TNF-alpha, IL-2 and IL-10 production, as well as expression of the co-stimulatory molecule CD154. The counting of affected cells was performed on a flow cytometer (FIG. 7).

[1] = test system: lung cancer cells NCI-H460; details: Wang et al., 2009a; cited from earlier work
[2] = test system: colon carcinoma cells HCT-8; details: Wang et al., 2009a; cited from earlier work
[3] = test system: colon carcinoma cells HCT-15; details: Wang et al., 2009a; cited from earlier work

T1 sequence (P01903 26-254): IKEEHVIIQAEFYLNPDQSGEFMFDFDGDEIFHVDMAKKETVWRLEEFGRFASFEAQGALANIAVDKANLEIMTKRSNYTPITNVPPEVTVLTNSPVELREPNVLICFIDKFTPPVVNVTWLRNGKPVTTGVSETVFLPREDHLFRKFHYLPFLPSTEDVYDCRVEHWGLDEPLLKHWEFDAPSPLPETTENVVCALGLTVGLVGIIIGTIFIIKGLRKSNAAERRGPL
T1 sequence (P01911 30-227 limits assumed): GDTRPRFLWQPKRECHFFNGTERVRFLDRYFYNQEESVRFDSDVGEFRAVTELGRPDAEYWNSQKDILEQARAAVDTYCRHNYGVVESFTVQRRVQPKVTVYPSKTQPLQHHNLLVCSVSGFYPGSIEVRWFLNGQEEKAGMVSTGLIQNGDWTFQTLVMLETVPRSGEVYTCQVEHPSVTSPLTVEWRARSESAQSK

| Molecule | Relative Binding Score HLA-DR2 (HLA-DR2) | Relative Binding Score HLA-DR1 (HLA-DR1) | Relative Binding Score HLA-DR4 (HLA-DR4) | Relative Binding Score HLA-DR5 (HLA-DR5) | Relative Binding Score HLA-DR7 (HLA-DR7) | immune response (CD4 T-cells) | cytotoxicity [1] | cytotoxicity [2] | cytotoxicity [3] |
| --- | --- | --- | --- | --- | --- | --- | --- | --- | --- |
| MET-005: class II peptide with known immunogenicity, IMA950 peptide (TFSYVDPVITSISPKYG) [reference compound] | 0.28 | 0.87 | 5.89 | 0.12 | 3.69 | 100% | – | – | – |
| CCCCCCCCCCCCCCOc1ccc(C(=O)O)o1 [TOFA, 5-tetradecyloxy-2-furoic acid] | – | – | – | – | – | – | cytotoxic | cytotoxic | cytotoxic |
| BIR-002: class II peptide with known immunogenicity, IMA950 peptide (TLGEFLKLDRERAKN) [reference compound] | 0.05 | 40.06 | 6.12 | 103.9 | 0.27 | 100% | – | – | – |

— patent US10487116B2, “Immunotherapy against several tumors, such as lung cancer, including NSCLC” (IMMATICS BIOTECHNOLOGIES GMBH, priority 2013, dated 2019)
